From patent publication US11214803B2, “Modulators of YAP1 expression” (Ionis Pharmaceuticals, Inc., priority 2019, dated 2022) come the findings set out here.

Series [1] is described as follows: Tolerability in Sprague-Dawley rats, plasma chemistry markers (Example 21). The conditions noted are these: male Sprague-Dawley rats, 50 mg/kg s.c. weekly for 6 weeks (7 doses), 48 hours after last dose. The series is classed as in vivo. As to the method: Sprague-Dawley rats are a multipurpose model used for safety and efficacy evaluations. The rats were treated with Ionis modified oligonucleotides from the studies described in the Examples above and evaluated for changes in the levels of various plasma chemistry markers.

Series [2] is described as follows: Tolerability in Sprague-Dawley rats, body and organ weights (Example 21). The series is classed as in vivo. The conditions noted are these: male Sprague-Dawley rats, 50 mg/kg s.c. weekly for 6 weeks (7 doses); for Kidney weight / Liver weight / Spleen weight: end of study; for body weight: terminal, prior to necropsy. As to the method: Terminal body weight was measured prior to necropsy. Ionis oligonucleotides that caused any changes in organ weights outside the expected range for modified oligonucleotides were excluded from further studies.

Series [3] in a line: Tolerability in Sprague-Dawley rats, kidney function, urine total protein to creatinine ratio (Example 21). The conditions noted are these: male Sprague-Dawley rats, 50 mg/kg s.c. weekly for 6 weeks (7 doses).
Description: Male Sprague-Dawley rats were maintained on a 12-hour light/dark cycle and fed ad libitum with Purina normal rat chow. Groups of 4 Sprague-Dawley rats each were weekly injected subcutaneously with 50 mg/kg of Ionis oligonucleotide for 6 weeks (total 7 doses). Forty-eight hours after the last dose, the rats were euthanized; and organs, urine and plasma were harvested for further analysis.
To evaluate the effect of Ionis oligonucleotides on kidney function, urinary levels of total protein and creatinine were measured using an automated clinical chemistry analyzer (Hitachi Olympus AU400c, Melville, N.Y.).
Series [4] relates to Yap1 mRNA. As to the kind of experiment: Dose-dependent inhibition of human Yap1 in SNU-449 cells (Example 9, RTS36584). The series is classed as cell-based. The conditions noted are these: free uptake; for % UTC (Yap1 mRNA): approximately 48 hours; for IC50: linear regression on a log/linear plot. Put shortly: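 SNU-449 cells (10,000/well) took up modified oligonucleotides by free uptake at a range of doses for about 48 h. Yap1 mRNA was quantified with primer-probe set RTS36584, normalised to RIBOGREEN total RNA and expressed as % untreated control; IC50 from linear regression on log/linear plot.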

As usually defined, the IC50 is the midpoint of a concentration-inhibition curve. Higher therefore signals lower potency.

Marks after values point to notes of the source that are not given here. Strand notation (5' to 3'): a small letter for the sugar, then the base; units joined by * are phosphorothioate-linked, units joined directly phosphodiester-linked; [ ] holds rarer units or linkages, { } end groups; capitals alone tell only the bases. e = 2'-O-(2-methoxyethyl) (MOE); k = constrained ethyl (cEt); [5mC] = 5-methylcytosine; d = 2'-deoxy (DNA); m = 2'-O-methyl Bounds are passed on as bounds.

In series [1], “1198874 (kA*kA*dG*dT*dG*dT*dA*dT*dG*dT*d[5mC]*kA*eG*kA*eA*kG) [compound 1198874]” displayed an ALT of 73 U/L, an AST of 102 U/L, a BUN of 22 mg/dL and a TBIL of 0.16 mg/dL. In series [2], this substance had a Kidney weight of 3.67 g, a Liver weight of 20 g, a Spleen weight of 2.61 g and a body weight of 372 g. In addition, in series [3], the “URINE P/C ratio (total protein to creatinine ratio)” value (“URINE P/C ratio” for short) is on record as 9. Besides, in series [4] (31.3 nM), the “% UTC (Yap1 mRNA)” value was determined as 36 % UTC. Also, the “% UTC (Yap1 mRNA)” value in series [4] (125.0 nM) was 8 % UTC. In series [4] (500.0 nM), the “% UTC (Yap1 mRNA)” value is reported as 1 % UTC. Also, the “% UTC (Yap1 mRNA)” value in series [4] (2000.00 nM) is reported as 0 % UTC. This substance also gave a half-inhibitory concentration (IC50) in series [4] of less than 30 nM.

In series [1], “1198612 (kA*kA*kG*dT*dG*dT*dA*dT*dG*dT*d[5mC]*dA*kG*kA*kA*eG) [compound 1198612]” returned an ALT of 74 U/L, an AST of 91 U/L, a BUN of 31 mg/dL and a TBIL of 0.12 mg/dL. In series [2], this substance displayed a Kidney weight of 3.60 g, a Liver weight of 17 g, a Spleen weight of 2.33 g and a body weight of 345 g. For the same substance, in series [3], the “URINE P/C ratio” value amounted to 11. Also, the “% UTC (Yap1 mRNA)” value in series [4] (31.3 nM) is recorded as 44 % UTC. Also, in series [4] (125.0 nM), the “% UTC (Yap1 mRNA)” value is on record as 12 % UTC. For the same substance, the “% UTC (Yap1 mRNA)” value in series [4] (500.0 nM) stood at 2 % UTC. Moreover, the “% UTC (Yap1 mRNA)” value in series [4] (2000.00 nM) stood at 0 % UTC. This substance also gave an IC50 in series [4] of less than 30 nM.

In series [1], “1198312 (kG*k[5mC]*kA*d[5mC]*dT*dT*dT*dT*dA*d[5mC]*dA*dT*kT*eA*kG*eG) [compound 1198312]” displayed an ALT of 132 U/L, an AST of 108 U/L, a BUN of 25 mg/dL and a TBIL of 0.14 mg/dL. In series [2], the Kidney weight is 4.26 g, the Liver weight was determined as 19 g, the Spleen weight was 2.19 g and the body weight is reported as 365 g. In series [3], the “URINE P/C ratio” value was found to be 60. In series [4] (31.3 nM), the “% UTC (Yap1 mRNA)” value is on record as 76 % UTC. In addition, the “% UTC (Yap1 mRNA)” value in series [4] (125.0 nM) came to 34 % UTC. For the same substance, the “% UTC (Yap1 mRNA)” value in series [4] (500.0 nM) is given as 10 % UTC. Besides, the “% UTC (Yap1 mRNA)” value in series [4] (2000.00 nM) turned out to be 5 % UTC. In addition, the IC50 in series [4] worked out at 100 nM.

In series [1], “1200857 (kA*kG*kT*dG*dT*mA*dT*dG*dT*d[5mC]*dA*dG*dA*kA*kG*kA; antisense) [compound 1200857]” displayed an ALT of 183 U/L, an AST of 318 U/L, a BUN of 56 mg/dL and a TBIL of 4.93 mg/dL. Further, in series [2], the Kidney weight was 6.97 g, the Liver weight is listed as 19 g, the Spleen weight was determined as 2.55 g and the body weight amounted to 307 g. Moreover, the “URINE P/C ratio” value in series [3] was 52. The “% UTC (Yap1 mRNA)” value in series [4] (31.3 nM) came to 66 % UTC. In series [4] (125.0 nM), the “% UTC (Yap1 mRNA)” value is on record as 30 % UTC. Moreover, in series [4] (500.0 nM), the “% UTC (Yap1 mRNA)” value is 8 % UTC. In series [4] (2000.00 nM), the “% UTC (Yap1 mRNA)” value came out at 2 % UTC. This substance also had an IC50 in series [4] of 100 nM.

Take “1198873 (kA*kG*dT*dG*dT*dA*dT*dG*dT*d[5mC]*dA*kG*eA*kA*eG*kA; antisense) [compound 1198873]”: in series [1], the ALT is listed as 78* U/L, the AST was 79* U/L, the BUN was 24* mg/dL and the TBIL is 0.17* mg/dL. Further, in series [2], the Kidney weight came to 3.65 g, the Liver weight worked out at 19 g, the Spleen weight was 2.42 g and the body weight is on record as 408 g. Further, the “URINE P/C ratio” value in series [3] was 9. Further, the “% UTC (Yap1 mRNA)” value in series [4] (31.3 nM) stood at 38 % UTC. For the same substance, the “% UTC (Yap1 mRNA)” value in series [4] (125.0 nM) is on record as 12 % UTC. Further, in series [4] (500.0 nM), the “% UTC (Yap1 mRNA)” value came out at 2 % UTC. Besides, the “% UTC (Yap1 mRNA)” value in series [4] (2000.00 nM) was found to be 0 % UTC. Also, the IC50 in series [4] is less than 30 nM.
